Experiments:
Assay type in all cases: cell-based
HS 578T = experiment: SRB growth assay, 2 days exposure, breast cancer
Method: (§1) Arsenic trioxide (1 mg/ml, 10 mg/ampoule, manufactured by Taylor Pharmaceuticals, Decatur, Ill.) was tested at five concentrations each at 10-fold dilutions, i.e., 10^−5, 10^−6, 10^−7, 10^−8 and 10^−9 μg/ml.
(§2) The in vitro tests were performed by incubating the test cells in the presence of the indicated concentration of arsenic trioxide under standard culture conditions for a designated period of time, which is followed by a sulforhodamine B (SRB) protein assay to estimate cell viability or growth. The cell lines are organized into subpanels according to the origin of the cell lines, e.g., leukemia, breast cancer, etc. A description of the cell lines and method of testing is described in Monk et al. (1997, Anticancer Drug Des. 12:533-41) and Weinstein et al., (1997, Science 275:343-9), which are incorporated herein in their entirety.
(§3) The measurement of an effect is expressed in Percentage Growth (PG). The measured effect of the compound on a cell line is calculated according to one or the other of the following two expressions: If (Mean ODtest−Mean ODzero)≧0. then PG=100×(Mean ODtest−Mean ODzero)/(Mean ODctrl−Mean ODzero) If (Mean ODtest−Mean ODzero)<0. then PG=100×(Mean ODtest−Mean ODzero)/(Mean ODzero where: • Mean ODzero=the average of optical density measurements of SRB-derived color just before exposure of cells to the test compounds; • Mean ODtest=the average of optical density measurements of SRB-derived color after exposure of cells to the test compound for a designated period of time; and • Mean ODctrl=the average of optical density measurements of SRB-derived color after with no exposure of cells to the test compound for a designated period of time
(§4) The first two columns describe the subpanel (e.g., leukemia) and cell line (e.g., CCRF-CEM) involved. The next two columns list the Mean ODzero and Mean ODctrl; the next five columns list the Mean ODtest for each of five different concentrations. Each concentration is expressed as the log10 (molar or μg/ml). The next five columns list the calculated PGs for each concentration. The response parameters GI50, TGI and LC50 are interpolated values representing the concentrations at which the PG is +50, 0, and −50, respectively. Sometimes these response parameters cannot be obtained by interpolation. If, for instance, all of the PGs in a given row exceed +50, then none of the three parameters can be obtained by interpolation. In such a case, the value given for each response parameter is the highest concentration tested and is preceded by a “>” sign. This practice is extended similarly to the other possible situations where a response parameter cannot be obtained by interpolation.
(§5) In the first set, the cells from 56 different cancer cell lines were exposed to five concentrations of arsenic trioxide continuously for two days prior to performing the SRB assay. In the second set, the cells from 50 different cell lines (a subset of the first 56 cell lines, plus the renal cancer cell line 786-0) were exposed continuously for six days prior to the SRB assay.

MDA-MB-231/ATCC = experiment: SRB growth assay, 2 days exposure, breast cancer
Method: as §1, §2, §3, §4, §5

MCF7 = experiment: SRB growth assay, 2 days exposure, breast cancer
Method: as §1, §2, §3, §4, §5

BT-549 = experiment: SRB growth assay, 2 days exposure, breast cancer
Method: as §1, §2, §3, §4, §5

T-47D = experiment: SRB growth assay, 2 days exposure, breast cancer
Method: as §1, §2, §3, §4, §5

MDA-N = experiment: SRB growth assay, 2 days exposure, breast cancer
Method: as §1, §2, §3, §4, §5

OVCAR-8 = experiment: SRB growth assay, 2 days exposure, ovarian cancer
Method: as §1, §2, §3, §4, §5

SK-OV-3 = experiment: SRB growth assay, 2 days exposure, ovarian cancer
Method: as §1, §2, §3, §4, §5

IGROV1 = experiment: SRB growth assay, 2 days exposure, ovarian cancer
Method: as §1, §2, §3, §4, §5

OVCAR-5 = experiment: SRB growth assay, 2 days exposure, ovarian cancer
Method: as §1, §2, §3, §4, §5

OVCAR-3 = experiment: SRB growth assay, 2 days exposure, ovarian cancer
Method: as §1, §2, §3, §4, §5

arsenic trioxide
TGI (HS 578T): >0.0126 ng/mL
Percent Growth (HS 578T; log10 conc −4.9): 42%
Percent Growth (HS 578T; log10 conc −5.9): 105%
Percent Growth (HS 578T; log10 conc −6.9): 96%
Percent Growth (HS 578T; log10 conc −7.9): 105%
Percent Growth (HS 578T; log10 conc −8.9): 109%
TGI (MDA-MB-231/ATCC): >0.0126 ng/mL
Percent Growth (MDA-MB-231/ATCC; log10 conc −4.9): 3%
Percent Growth (MDA-MB-231/ATCC; log10 conc −5.9): 107%
Percent Growth (MDA-MB-231/ATCC; log10 conc −6.9): 109%
Percent Growth (MDA-MB-231/ATCC; log10 conc −7.9): 102%
Percent Growth (MDA-MB-231/ATCC; log10 conc −8.9): 97%
TGI (MCF7): >0.0126 ng/mL
Percent Growth (MCF7; log10 conc −4.9): 11%
Percent Growth (MCF7; log10 conc −5.9): 95%
Percent Growth (MCF7; log10 conc −6.9): 108%
Percent Growth (MCF7; log10 conc −7.9): 98%
Percent Growth (MCF7; log10 conc −8.9): 99%
TGI (BT-549): >0.0126 ng/mL
Percent Growth (BT-549; log10 conc −4.9): 26%
Percent Growth (BT-549; log10 conc −5.9): 84%
Percent Growth (BT-549; log10 conc −6.9): 108%
Percent Growth (BT-549; log10 conc −7.9): 110%
Percent Growth (BT-549; log10 conc −8.9): 114%
TGI (T-47D): 0.00986 ng/mL
Percent Growth (T-47D; log10 conc −4.9): −10%
Percent Growth (T-47D; log10 conc −5.9): 81%
Percent Growth (T-47D; log10 conc −6.9): 133%
Percent Growth (T-47D; log10 conc −7.9): 109%
Percent Growth (T-47D; log10 conc −8.9): 88%
TGI (MDA-N): >0.0126 ng/mL
Percent Growth (MDA-N; log10 conc −4.9): 3%
Percent Growth (MDA-N; log10 conc −5.9): 86%
Percent Growth (MDA-N; log10 conc −6.9): 91%
Percent Growth (MDA-N; log10 conc −7.9): 101%
Percent Growth (MDA-N; log10 conc −8.9): 102%
TGI (OVCAR-8): >0.0126 ng/mL
Percent Growth (OVCAR-8; log10 conc −4.9): 28%
Percent Growth (OVCAR-8; log10 conc −5.9): 80%
Percent Growth (OVCAR-8; log10 conc −6.9): 84%
Percent Growth (OVCAR-8; log10 conc −7.9): 92%
Percent Growth (OVCAR-8; log10 conc −8.9): 92%
TGI (SK-OV-3): >0.0126 ng/mL
Percent Growth (SK-OV-3; log10 conc −4.9): 40%
Percent Growth (SK-OV-3; log10 conc −5.9): 100%
Percent Growth (SK-OV-3; log10 conc −6.9): 98%
Percent Growth (SK-OV-3; log10 conc −7.9): 97%
Percent Growth (SK-OV-3; log10 conc −8.9): 94%
TGI (IGROV1): >0.0126 ng/mL
Percent Growth (IGROV1; log10 conc −4.9): 18%
Percent Growth (IGROV1; log10 conc −5.9): 102%
Percent Growth (IGROV1; log10 conc −6.9): 105%
Percent Growth (IGROV1; log10 conc −7.9): 118%
Percent Growth (IGROV1; log10 conc −8.9): 111%
TGI (OVCAR-5): >0.0126 ng/mL
Percent Growth (OVCAR-5; log10 conc −4.9): 34%
Percent Growth (OVCAR-5; log10 conc −5.9): 97%
Percent Growth (OVCAR-5; log10 conc −6.9): 93%
Percent Growth (OVCAR-5; log10 conc −7.9): 103%
Percent Growth (OVCAR-5; log10 conc −8.9): 105%
TGI (OVCAR-3): >0.0126 ng/mL
Percent Growth (OVCAR-3; log10 conc −4.9): 12%
Percent Growth (OVCAR-3; log10 conc −5.9): 90%
Percent Growth (OVCAR-3; log10 conc −6.9): 97%
Percent Growth (OVCAR-3; log10 conc −7.9): 99%
Percent Growth (OVCAR-3; log10 conc −8.9): 101%
